{"source": "patent US8742068B2", "about": "“Treatment and prevention of inflammatory diseases and autoimmune diseases” (Universiteit Utrecht Holding B.V., priority 2007, dated 2014)", "key": {"DSS colitis [1]": {"test_system": "DSS colitis", "assay": "DSS colitis, peroral treatment (Prague study, 1st part, Example 3)", "type": "in vivo, BALB/c mice", "method": "Fifteen conventional female Balb/c female mice (7 to 9 weeks old) were randomly separated in […] (five mice each). To evaluate the efficacy of per oral treatment, the antigens (full length Mycobacterial HSP70 protein) were administered together with 1 mg of Soybean trypsin inhibitor (SBTI, Sigma) dissolved in 50 μl of 0.15 M sodium bicarbonate, by gavage 4 times in one week interval. After one week the mice received 3% dextran sodium sulfate (DSS) in their drinking water continuously for up to 7 days. Colitis was evaluated on day 35 by a clinical activity score, by colon length and histological score.\n• treated: 100 μl of sterile PBS/SBTI intragastrically (Control group) Group B1 (HSP60+DSS): • treated: HSP60 30 μg/mouse in 100 μl of sterile PBS/SBTI (1:1) intragastrically Group C1 (HSP70+DSS): • treated: HSP70 30 μg/mouse in 100 μl of sterile PBS/SBTI (1:1) intragastrically Results"}, "[2]": {"test_system": "proteoglycan induced arthritis", "assay": "Proteoglycan induced arthritis (PGIA), intranasal pre-treatment", "type": "in vivo, Balb/c mice", "details": "Example 8: 30 μg intranasally on day −7, −5 and −3 before disease induction", "description": "The proteoglycan induced arthritis model (PGIA) is a murine model of rheumatoid arthritis and is described to be a T-cell dependent and antibody mediated model. In the model arthritis is induced by two times injection of human proteoglycan (hPG) in a synthetic adjuvant dimethyldioctadecylammonium (DDA), see Hanyecz A. et al., Achievement of a synergistic adjuvant effect on arthritis induction by activation of innate immunity and forcing the immune response toward the Th1 phenotype. Arthritis Rheum. 2004 50(5):1665-76.\nBecause arthritis is induced by immunization with a synthetic adjuvant, instead of complete Freund's adjuvant (CFA), the role of interfering immune responses, induced by microbial Hsp's present in CFA, can be excluded. Due to cross reactive responses, between the human and the mouse (self) PG, a chronic and relapsing arthritis develops. After disease development, arthritis severity is scored by clinical assessment of thickness, redness and deformation of the joints on a scale of 1-4 per paw.\nTen female Balb/c mice, retired breeders obtained from Charles River, were randomly divided in two groups. To evaluate the effect of intra nasal treatment with Mycobacterial HSP70 (SEQ ID NO: 55) on PGIA 30 μg Hsp70 in 10 μl PBS was administered on day −7, −5 and −3 before disease induction. PGIA was induced by two times i.p. injection with 400 μg hPG and 2 mg DDA in 200 μl PBS. Subsequently developed arthritis scores were assessed by clinical evaluation as described in Example 7.\nFifteen female Balb/c mice, retired breeders obtained from Charles River, were randomly divided in three groups (five mice per group). To evaluate the effect of intranasal treatment with Hsp70-derived peptides “B1” (SEQ ID NO: 1) and a mixture of C1 (SEQ ID NO: 3) and mC1a (SEQ ID NO: 4) (designated herein as “C1mix”) on PGIA 100 μg peptide in 10 μl PBS was administered on day −7, −5 and −3 before disease induction. Ovalbumin peptide 323-339 (pOva) was used as a control peptide. PGIA was induced by two times i.p. injection with 400 μg hPG and 2 mg DDA in 200 μl PBS. Subsequently developed arthritis scores were assessed by clinical evaluation.\nTwelve female Balb/c mice, retired breeders obtained from Charles River, were randomly divided in two groups (six mice per group). To evaluate the effect of intra nasal treatment with Hsp70 derived mC1 a on PGIA 100 μg peptide in 10 μl PBS was administered on day −14, −11, −7 and −4 before disease induction. Ovalbumin peptide (pOva) was used as a control peptide. PGIA was induced by two times i.p. injection with 400 μg hPG and 2 mg DDA in 200 μl PBS. Subsequently developed arthritis scores were assessed by clinical evaluation.\nEighteen female Balb/c mice, retired breeders obtained from Charles River, were randomly divided in three groups (six mice per group). To evaluate the effect of intranasal (i.n.) treatment with Hsp70 derived peptides C1 and its mouse homologue mC1a on PGIA 100 μg peptide in 10 μl PBS was administered on day −7, −5 and −3 before disease induction (see FIG. 28). Ovalbumin peptide (pOva) was used as a control peptide. PGIA was induced by two times i.p. injection with 300 μg hPG and 2 mg DDA in 200 μl PBS. Subsequently developed arthritis scores were assessed by clinical evaluation. • Group A: (pOva): Treated with 100 μg pOva in 10 μl PBS intranasally • Group B (C1): Treated with 100 μg C1 in 10 μl PBS intranasally • Group C (mC1a): Treated with 100 μg mC1a in 10 μl PBS intranasally"}, "DSS colitis [3]": {"test_system": "DSS colitis", "assay": "DSS colitis (Utrecht study, Example 5)", "type": "in vivo, BALB/c mice", "details": "for Colon Length (cm), average: 4 x 30 μg oral gavage, 3% DSS 7 days, n=10", "method": "This study is performed with female BALB/c mice aged 7 weeks at the start of the experiment. Groups of mice (n=10) were treated 4 times (days 7, 9, 11, 14) with 30 μg HSP70 in 100 μl PBS (Mt hsp70; batch 031205; 2.1 Endotoxin Units/mg) or vehicle (100 μl PBS), administered via oral gavage. 10 minutes prior to gavage animals received 2 mg soybean trypsin inhibitor (SBTI) in 0.15M sodium bicarbonate, pH 8.0. Colitis was induced by administering drinking water supplemented with 3% DSS during 7 days.\nDisease onset was followed by determination of body weight and stool consistency, resulting in clinical state as explained in the table below.\nAt dissection, colon length was recorded\nColons were cut longitudinally and divided into parts to determine: • histology on formalin-fixed paraffin sections • MPO activity in homogenates (indicative for neutrophilic infiltrations) • Ex-vivo cytokine release (TNFα, IL10) from distal colon sample.\nTotal score is calculated by the adding the score for each parameter and divided by 3.\nDistal colon samples were incubated for 24 h and IL10 content in supernatant was measured using a specific ELISA. IL10 release from distal colon sample in healthy BALB/c mice is 450±328 pg/g colon."}, "[4]": {"details": "30 μg/mouse intragastrically with SBTI, 4 times before 3% DSS, 5 mice"}, "[5]": {"details": "Multiple Range Tests, * p < 0.05"}}}
{"substance": "HSP70: full length Mycobacterial HSP70 protein (SEQ ID NO: 55)", "values": [{"measurement": "Histological grade, Average", "setting": "DSS colitis [1]; [4]", "result": 1.4}, {"measurement": "Weight change, Average", "setting": "DSS colitis [1]; [4]", "result": "−2.04"}, {"measurement": "Colon length, Average", "setting": "DSS colitis [1]; 30 μg/mouse intragastrically with SBTI, 4 times in one week interval before 3% DSS, day 35, 5 mice", "result": 6.36}, {"measurement": "Clinical state, Difference (contrast PBS minus treatment)", "setting": "DSS colitis [1]; [5]", "result": "*1.3332"}, {"measurement": "Colon length, Difference (contrast PBS minus treatment)", "setting": "DSS colitis [1]; [5]", "result": "−0.2"}, {"measurement": "Histological grade, Difference (contrast PBS minus treatment)", "setting": "DSS colitis [1]; [5]", "result": "*0.75"}, {"measurement": "Weight change, Difference (contrast PBS minus treatment)", "setting": "DSS colitis [1]; [5]", "result": "*−6.52"}, {"measurement": "effect on colitis", "setting": "DSS colitis [1]; administered orally, prophylactically (prior to disease induction)", "result": "suppressive effect on colitis"}, {"measurement": "Clinical state, Average", "setting": "DSS colitis [1]; total score of weight loss, stool consistency, bleeding divided by 3, 30 μg/mouse intragastrically, 5 mice", "result": 2.1334}, {"measurement": "arthritis development (arthritis score)", "setting": "[2]", "result": "can suppress arthritis development"}, {"measurement": "Colon Length (cm), average", "setting": "DSS colitis [3]", "result": 6.8, "unit": "cm"}, {"measurement": "Colon Length (cm), average", "setting": "DSS colitis [3]; listed as HSP70 protein", "result": "less decreased"}, {"measurement": "disease severity (clinical score, disease progression)", "setting": "DSS colitis [3]; pre-treatment 4 x 30 μg oral gavage", "result": "decreased disease severity"}]}
